Results from article PMC3295836 (Bioorganic & medicinal chemistry letters, 2012).
Several values for one entry are separate records, joined by “and”; a condition that tells them apart may be missing. Equal entries are not always repeated.

How the values were obtained:
in vivo = conditions: NZW, rabbit, sc, 10 mg/kg
[1] = test system: anthrax lethal toxin (LT; PA + LF); set-up: species or system Fischer 344 rats; conditions: rat, in vivo
[2] = molecular target: anthrax lethal factor (LF) (Bacillus anthracis, UniProt P15917); type: biochemical
[3] = t = 30 min

Sequence of anthrax lethal factor (LF) (P15917 34-809 limits assumed): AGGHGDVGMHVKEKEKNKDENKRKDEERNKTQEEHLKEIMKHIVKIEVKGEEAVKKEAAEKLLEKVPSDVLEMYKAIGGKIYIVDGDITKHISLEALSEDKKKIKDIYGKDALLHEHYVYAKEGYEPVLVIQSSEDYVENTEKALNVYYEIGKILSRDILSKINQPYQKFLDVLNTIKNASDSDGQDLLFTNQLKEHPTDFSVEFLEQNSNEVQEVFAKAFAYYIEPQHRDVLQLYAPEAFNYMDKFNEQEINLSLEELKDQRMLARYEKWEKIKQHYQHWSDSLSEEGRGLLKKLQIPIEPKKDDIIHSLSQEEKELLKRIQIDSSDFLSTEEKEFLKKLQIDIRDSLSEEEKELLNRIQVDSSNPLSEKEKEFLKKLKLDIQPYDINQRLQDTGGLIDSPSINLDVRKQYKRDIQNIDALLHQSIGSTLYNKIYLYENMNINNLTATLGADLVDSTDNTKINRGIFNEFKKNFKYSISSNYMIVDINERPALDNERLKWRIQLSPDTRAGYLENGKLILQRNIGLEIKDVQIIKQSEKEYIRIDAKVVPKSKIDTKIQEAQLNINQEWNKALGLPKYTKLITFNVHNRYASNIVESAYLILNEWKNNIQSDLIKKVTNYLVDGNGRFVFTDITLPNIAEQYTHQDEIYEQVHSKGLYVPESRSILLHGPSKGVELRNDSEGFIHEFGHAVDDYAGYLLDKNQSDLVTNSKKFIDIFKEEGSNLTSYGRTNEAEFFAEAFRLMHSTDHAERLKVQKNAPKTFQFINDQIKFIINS

Compound | rMST = MST(LFI)/MST(controls) [1] | surv (number of survivors per group) [1] | other results
CCC(NCCCC[C@@H](C[C@@H](OC)c1ccc(F)cc1)C(=O)NO)c1ccc(F)cc1 (stereo partly shown) [LFI 20] | – | – | Cmax (in vivo): 561 ng/mL
Cc1cc(C[C@H](CCCCNCc2ccc(F)cc2)C(=O)NO)cc(C)c1F [LFI 2] | 19.3 | 1/3 and 3/3 | –
Cc1cc(C[C@H](CCCCN[C@H](Cc2ccccc2)c2ccc(F)cc2)C(=O)NO)cc(C)c1F [LFI 15] | – | – | LF (FRET) KinM) [2]: sub-nanomolar
CCC(NCCCC[C@@H](Cc1cc(C)c(F)c(C)c1)C(=O)NO)c1ccc(F)cc1 (stereo partly shown) [LFI 18] | – | protect all of the animals and 3/3 and 5/6 | –
Cc1cc(N[C@H](CCCCNCc2ccc(F)cc2)C(=O)NO)cc(C)c1F [LFI 1] | 16.8 | 3/5 and 3/3 | –
CC[C@@H](NCCCC[C@@H](Cc1cc(C)c(F)c(C)c1)C(=O)NO)c1ccc(F)cc1 [LFI 11] | – | – | difference in potency against LF between analogs [2]: 50 fold
CCC(NCCCC[C@@H](Oc1cc(C)c(F)c(C)c1)C(=O)NO)c1ccc(F)cc1 (stereo partly shown) [LFI 19] | – | 1/3 | M = microsome stability, percent of compound remaining [3]: < 10%
Cc1cc(O[C@H](CCCCNCc2ccc(F)cc2)C(=O)NO)cc(C)c1F [LFI 3] | 16.0 | 0/3 | –
CO[C@H](C[C@H](CCCCNCc1ccc(F)cc1)C(=O)NO)c1ccc(F)cc1 [LFI 4] | – | one animal was lost | –
